Results: patent publication US9393221B2, “Methods and compounds for reducing intracellular lipid storage” (THE GENERAL HOSPITAL CORPORATION, priority 2011, dated 2016)
Structures can show the parent of a compound that is named as a salt.

The compounds below were run on ATGL-KO iPSCs (assay: High throughput iPSC chemical screening, Oil Red O (ORO) lipid accumulation). Details: glycolytic switch compounds.
Assay type: cell-based, mouse
Wherever Z-score is given: test concentration or dose not given here.

Structure (SMILES) | Rank in normalized ORO score from screen
O=C1NCN(c2ccccc2)C12CCN(CCCC(c1ccc(F)cc1)c1ccc(F)cc1)CC2 [Fluspirilen, reference compound] | 40
Fc1ccc(C(OCCN2CCN(CCCc3ccccc3)CC2)c2ccc(F)cc2)cc1 [GBR 12909 dihydrochloride] | 208
Cc1cc2c(C(C)C)c(O)c(O)c(C=O)c2c(O)c1-c1c(C)cc2c(C(C)C)c(O)c(O)c(C=O)c2c1O [Gossypol] | 8

Same assay, conditions: normalized ORO level vs DMSO-treated cells; compound present during 7 days differentiation, 96-well; negative = decrease in lipid accumulation

Structure (SMILES) | Z-score
CNCCC(Oc1ccc(C(F)(F)F)cc1)c1ccccc1 (stereo not shown) [Fluoxetine hydrochloride] | −1.0533
Cl.Cl.OCCN1CCN(CC/C=C2/c3ccccc3Sc3ccc(C(F)(F)F)cc32)CC1 [Flupentixol dihydrochloride cis-(Z)] | −0.5309
OCCN1CCN(CCCN2c3ccccc3Sc3ccc(C(F)(F)F)cc32)CC1 [Fluphenazine dihydrochloride] | 0.4317
CC1(C)O[C@@H]2C[C@H]3[C@@H]4C[C@H](F)C5=CC(=O)CC[C@]5(C)[C@H]4[C@@H](O)C[C@]3(C)[C@]2(C(=O)CO)O1 [Flurandrenolide] | −0.0402
CC(C(=O)O)c1ccc(-c2ccccc2)c(F)c1 (stereo not shown) [Flurbiprofen] | −1.4
O=C1NCN(c2ccccc2)C12CCN(CCCC(c1ccc(F)cc1)c1ccc(F)cc1)CC2 [Fluspirilen, reference compound] | −1.6301
CC(C)C(=O)Nc1ccc([N+](=O)[O-])c(C(F)(F)F)c1 [Flutamide] | −0.5472
CCC(=O)O[C@]1(C(=O)SCF)[C@H](C)C[C@H]2[C@@H]3C[C@H](F)C4=CC(=O)C=C[C@]4(C)[C@@]3(F)[C@@H](O)C[C@@]21C [Fluticasone propionate] | −1.0154
CC(C)n1c(/C=C/C(O)CC(O)CC(=O)O)c(-c2ccc(F)cc2)c2ccccc21 (stereo not shown) [Fluvastatin sodium salt] | 9.993
COCCCC/C(=N\OCCN)c1ccc(C(F)(F)F)cc1 [Fluvoxamine maleate] | −1.2293
Nc1nc2ncc(CNc3ccc(C(=O)N[C@@H](CCC(=O)O)C(=O)O)cc3)nc2c(=O)[nH]1 [Folic acid] | 1.253
Nc1nc(=O)c2c([nH]1)NCC(CNc1ccc(C(=O)N[C@@H](CCC(=O)[O-])C(=O)[O-])cc1)N2C=O.[Ca+2] (stereo partly shown) [Folinic acid calcium salt] | −0.7409
O=C(O)c1ccccc1OP(=O)(O)O [Fosfosal] | −1.2351
O=C1OC(CN2CCOCC2)CN1/N=C/c1ccc([N+](=O)[O-])o1 (stereo not shown) [Furaltadone hydrochloride] | −0.4516
NS(=O)(=O)c1cc(C(=O)O)c(NCc2ccco2)cc1Cl [Furosemide] | 0.5074
CCCCc1ccc(C(=O)O)nc1 [Fusaric acid] | −0.977
CC(=O)O[C@H]1C[C@@]2(C)[C@@H](C[C@@H](O)[C@H]3[C@@]4(C)CC[C@@H](O)[C@@H](C)[C@@H]4CC[C@@]32C)/C1=C(\CCC=C(C)C)C(=O)O [Fusidic acid sodium salt] | 0.9973
Fc1ccc(C(OCCN2CCN(CCCc3ccccc3)CC2)c2ccc(F)cc2)cc1 [GBR 12909 dihydrochloride] | −1.0102
NCC1(CC(=O)O)CCCCC1 [Gabapentin] | −0.2478
COc1ccc(-c2ccc(=N)n(CCCC(=O)O)n2)cc1 [Gabazine] | −0.1416
CCOC(=O)c1ccc(OC(=O)CCCCCN=C(N)N)cc1.CS(=O)(=O)O [Gabexate mesilate] | −1.4041
COc1ccc2c3c1O[C@H]1C[C@@H](O)C=C[C@@]31CCN(C)C2 [Galanthamine hydrobromide] | −0.7931
CC[N+](CC)(CC)CCOc1cccc(OCC[N+](CC)(CC)CC)c1OCC[N+](CC)(CC)CC [Gallamine triethiodide] | 0.8644
Nc1nc(O)c2ncn(COC(CO)CO)c2n1 [Ganciclovir] | −0.9945
C=C[C@]12CN(C)[C@@H]3[C@H]4CO[C@H](C[C@H]41)[C@]1(C(=O)Nc4ccccc41)[C@@H]32 [Gelsemine] | −0.4693
Cc1ccc(C)c(OCCCC(C)(C)C(=O)O)c1 [Gemfibrozil] | −0.2634

Structure (SMILES) | Z-score
C=C1C[C@]23C[C@@]1(O)CC[C@H]2[C@@]12C=C[C@H](O)[C@@](C)(C(=O)O1)[C@H]2[C@@H]3C(=O)O [Gibberellic acid] | 0.8089
C[C@@H]1C(=O)O[C@H]2C[C@@]34[C@H]5C[C@@H](C(C)(C)C)[C@]36[C@@H](OC(=O)[C@@H]6O)O[C@@]4(C(=O)O5)[C@]21O [Ginkgolide A] | −0.1024
O=C(OCC(O)CO)c1ccccc1Nc1ccnc2cc(Cl)ccc12 (stereo not shown) [Glafenine hydrochloride] | −0.4014
COc1ccc(Cl)cc1C(=O)NCCc1ccc(S(=O)(=O)NC(=O)NC2CCCCC2)cc1 [Glibenclamide] | 0.3112
Cc1ccc(S(=O)(=O)NC(=O)NN2CC3CCCC3C2)cc1 (stereo not shown) [Gliclazide] | 0.2404
CCC1=C(C)CN(C(=O)NCCc2ccc(S(=O)(=O)NC(=O)N[C@H]3CC[C@H](C)CC3)cc2)C1=O [Glimepiride] | 0.1043
Cc1cnc(C(=O)NCCc2ccc(S(=O)(=O)NC(=O)NC3CCCCC3)cc2)cn1 [Glipizide] | −0.2981
COc1ccc2c(c1)C(=O)N(CCc1ccc(S(=O)(=O)NC(=O)NC3CCCCC3)cc1)C(=O)C2(C)C [Gliquidone] | −0.9495
CCC1(c2ccc(N)cc2)CCC(=O)NC1=O (stereo not shown) [Glutethimide, para-amino] | 0.2858
C[C@H](CCC(=O)NCC(=O)O)[C@H]1CC[C@H]2[C@@H]3[C@H](O)C[C@@H]4C[C@H](O)CC[C@]4(C)[C@H]3C[C@H](O)[C@]12C [Glycocholic acid] | −0.6342
C[N+]1(C)CCC(OC(=O)C(O)(c2ccccc2)C2CCCC2)C1 (stereo not shown) [Glycopyrrolate] | −0.6161
Cc1cc2c(C(C)C)c(O)c(O)c(C=O)c2c(O)c1-c1c(C)cc2c(C(C)C)c(O)c(O)c(C=O)c2c1O [Gossypol] | −2.0704
CN(C)Cc1c[nH]c2ccccc12 [Gramine] | 1.618
Cn1c(-c2ccc3c(c2)OCO3)cc(=O)c2ccccc21 [Graveoline] | −1.0242
COC1=CC(=O)C[C@@H](C)[C@]12Oc1c(Cl)c(OC)cc(OC)c1C2=O [Griseofulvin] | 0.2728
COc1ccccc1OCC(O)CO (stereo not shown) [Guaifenesin] | 0.144
N=C(N)N/N=C/c1c(Cl)cccc1Cl [Guanabenz acetate] | −0.3551
N=C(N)NC(=O)Cc1c(Cl)cccc1Cl [Guanfacine hydrochloride] | −0.0783
CC1(C)O[C@@H]2C[C@H]3[C@@H]4CCC5=CC(=O)CC[C@]5(C)[C@@]4(F)[C@@H](O)C[C@]3(C)[C@]2(C(=O)CCl)O1 [Halcinonide] | −0.7085
CCCCN(CCCC)CCC(O)c1cc2c(Cl)cc(Cl)cc2c2cc(C(F)(F)F)ccc12 (stereo not shown) [Halofantrine hydrochloride] | 1.459
O=C(CCCN1CCC(O)(c2ccc(Cl)cc2)CC1)c1ccc(F)cc1 [Haloperidol] | −1.1776
COc1ccc2c3c([nH]c2c1)C(C)=NCC3.Cl.O.O [Harmaline hydrochloride dihydrate] | −0.5714
CC1=NCCc2c1[nH]c1cc(O)ccc21.Cl.O.O [Harmalol hydrochloride dihydrate] | 0.3888
COc1ccc2c(c1)[nH]c1c(C)nccc12.Cl [Harmine hydrochloride] | 0.3085
Cc1[nH]ccc2c1[nH]c1cc(=O)ccc12 [Harmol hydrochloride monohydrate] | −0.0757
C[C@]1(OC(=O)/C=C/c2ccccc2)C[C@@H](O)[C@]2(O)C=CO[C@@H](O[C@@H]3O[C@H](CO)[C@@H](O)[C@H](O)[C@H]3O)[C@@H]21 [Harpagoside] | −1.174
